Experimental data taken from US20230159527A1, “COMPOUNDS AS BCL-2 INHIBITORS” (Fochon Pharmaceuticals, Ltd., priority 2020, published 2023).

Tests used:
[1] = system: RS4;11 cells; assay: Cell proliferation assay, RS4;11 cells (MTS, 72 h); type: cell-based; details: Homo sapiens, RS4;11 cell proliferation
Description: MTS testing kit was purchased from Promega. The RPMI-1640, Fetal bovine serum and Penicillin-Streptomycin were purchased from Gibco. Dimethyl sulfoxide (DMSO) was purchased from Sigma.
To investigate whether a compound is able to inhibit the activity of Bcl-2 in cells, a mechanism-based assay using RS4;11 (ATCC® CRL-1873™) cell was developed. In this assay, inhibition of Bcl-2 was detected by the inhibition of RS4;11 cells proliferation. RS4;11 cells were cultured in culture flasks to 40-80% confluence in RPMI-1640 plus 10% fetal bovine serum. Cells were collected and plated onto 96-well plates at desired cell density (30000 cells/well). Plates were incubated overnight at 37° C., with 5% CO2 to adhere. Compounds were added to the plates, and the final compound concentrations were 10000, 3333, 1111, […], 41, 14, 4.6 and 1.5 nM. Plates plated with RS4;11 cells were placed at 37° C., with 5% CO2 for 72 h. 20 μl MTS/100 μl medium mixture solution were added to each well and incubate the plates for exactly 2 hours. The reaction was stopped by adding 25 μl 10% SDS per well. Measure absorbance at 490 nm and 650 nm (reference wavelength). IC50 was calculated using GraphPad Prism 5.0.

[2] = system: DoHH2 cells; assay: Cell proliferation assay, DoHH2 cells (MTS, 120 h); type: cell-based; details: Homo sapiens, DOHH-2
Description: MTS testing kit was purchased from Promega (Madison, Wis., USA). The RPMI-1640, Fetal bovine serum and Penicillin-Streptomycin were purchased from BI (Biological Industries, Beit Haemek, Israel). Dimethyl sulfoxide (DMSO) was purchased from Sigma (St. Louis, Mo., USA). DoHH2 (DSMZ catalog #: ACC47) cells were cultured in RPMI-1640 supplemented with Penicillin-Streptomycin and 10% FBS.
To investigate whether a compound is able to inhibit the activity of BCL-2 in cells, a mechanism-based assay using DoHH2 lines was developed. In this assay, the inhibition of BCL-2 was reflected by the inhibition of cell proliferation of DoHH2 cells. Cells were plated into 96-well plates at the optimized cell density of 5000 cells/well. Plates were incubated at 37° C., with 5% CO2 for 4h. Compounds were serially diluted and added to the plates with the final concentrations of 10000, 3333.3, 1111.1, 370.4, 123.5, 41.2, 13.7, 4.6 and 1.5 nM. Plates were incubated at 37° C., with 5% CO2 for 120 h. 20 μl MTS was added into each well and the plates were incubated at 37° C., with 5% CO2 for exactly 2 h. The absorbance was measured by a microplate reader at 490 nm. IC50 was calculated using GraphPad Prism 5.0 software.

SMILES	IC50 [1]	IC50 [2]
CCS(=O)(CC)=NC1CCC(CNc2ncc(S(=O)(=O)NC(=O)c3ccc(N4CCC5(CC4)CC(N4CCC[C@@H]4c4ccccc4C(C)C)C5)cc3Oc3cnc4[nH]ccc4c3)cc2[N+](=O)[O-])CC1 (single isomer, unassigned) [Example A-13b, (R or S)-2-((1H-pyrrolo[2,3-b]pyridin-5-yl)oxy)-N-((6-(((4-((diethyl(oxo)-λ^6-sulfanylidene)amino)cyclohexyl)methyl)amino)-5-nitropyridin-3-yl)sulfonyl)-4-(2-(2-(2-isopropyl-phenyl)pyrrolidin-1-yl)-7-azaspiro [3.5]nonan-7-yl)benzamide]	≤ 1 nM	≤ 1 nM
CCc1ccccc1[C@H]1CCCN1C1CC2(CCN(c3ccc(C(=O)NS(=O)(=O)c4cnc(NCC5CCC(N=S6(=O)CCOCC6)CC5)c([N+](=O)[O-])c4)c(Oc4cnc5[nH]ccc5c4)c3)CC2)C1 (stereo partly drawn) [Example A-21b, (R)-2-((1H-pyrrolo[2,3-b]pyridin-5-yl)oxy)-4-(2-(2-(2-ethylphenyl)pyrrolidin-1-yl)-7-azaspiro[3.5]nonan-7-yl)-N-((5-nitro-6-(((4-((4-oxido-1,4λ^6-oxathian-4-ylidene)amino)cyclohexyl)methyl)amino)pyridin-3-yl)sulfonyl)benzamide]	≤ 1 nM	≤ 1 nM
O=C(NS(=O)(=O)c1cnc(NCC2CCOCC2)c([N+](=O)[O-])c1)c1ccc(N2CCC3(CC2)CC(N2CCOC[C@H]2c2ccccc2C2CC2)C3)cc1Oc1cnc2[nH]ccc2c1 (single isomer, unassigned) [Example A-75, (R or S)-2-((1H-pyrrolo[2,3-b]pyridin-5-yl)oxy)-4-(2-(3-(2-cyclopropyl-phenyl)morpholino)-7-azaspiro[3.5]nonan-7-yl)-N-((5-nitro-6-(((tetra-hydro-2H-pyran-4-yl)methyl)amino)pyridin-3-yl)sulfonyl) benzamide]	≤ 1 nM	≤ 1 nM
O=C(NS(=O)(=O)c1cc([N+](=O)[O-])c(NCC2CCOCC2)cn1)c1ccc(N2CCC3(CC2)CC(N2CCC[C@@H]2c2ccccc2C2CC2)C3)cc1Oc1cnc2[nH]ccc2c1 [Example B-1b, (R)-2-((1H-pyrrolo[2,3-b]pyridin-5-yl)oxy)-4-(2-(2-(2-cyclopropylphenyl)pyrrolidin-1-yl)-7-azaspiro[3.5]nonan-7-yl)-N-((4-nitro-5-(((tetrahydro-2H-pyran-4-yl)methyl)amino)pyridin-2-yl)sulfonyl)benzamide]	≤ 1 nM	≤ 1 nM
Cc1nc(NC[C@H]2CC[C@](C)(O)CC2)c([N+](=O)[O-])cc1S(=O)(=O)NC(=O)c1ccc(N2CCC3(CC2)CC(N2CCOC[C@H]2c2ccccc2C(C)C)C3)cc1Oc1cnc2[nH]ccc2c1 (single isomer, unassigned) [Example A-131, 2-((1H-pyrrolo[2,3-b]pyridin-5-yl)oxy)-N-((6-((((1r,4r)-4-hydroxy-4-methylcyclohexyl)methyl)amino)-2-methyl-5-nitropyridin-3-yl)sulfonyl)-4-(2-((R or S)-3-(2-isopropylphenyl)morpholino)-7-azaspiro[3.5]nonan-7-yl) benzamide]	≤ 1 nM	≤ 1 nM
CC(C)c1ccccc1[C@@H]1CCCN1C1CC2(CCN(c3ccc(C(=O)NS(=O)(=O)c4cnc(NCC5CCOCC5)c([N+](=O)[O-])c4)c(Oc4cnc5[nH]ccc5c4)c3)CC2)C1 [Example A-5a, (5)-2-((1H-pyrrolo[2,3-b]pyridin-5-yl)oxy)-4-(2-(2-(2-isopropyl-phenyl)pyrrolidin-1-yl)-7-azaspiro [3.5]nonan-7-yl)-N-((5-nitro-6-(((tetrahydro-2H-pyran-4-yl)methyl)amino)pyridin-3-yl)sulfonyl) benzamide]	≤ 1 nM	≤ 1 nM
CC(C)c1ccccc1C1CCCN1C1CC2(CCN(c3ccc(C(=O)NS(=O)(=O)c4cc([N+](=O)[O-])c5c(n4)OC[C@H](C4CC4)N5)c(Oc4cnc5[nH]ccc5c4)c3)CC2)C1 (single isomer, unassigned) [Example B-31a, 2-((1H-pyrrolo[2,3-b]pyridin-5-yl)oxy)-N-(((S)-2-cyclopropyl-8-nitro-2,3-dihydro-1H-pyrido[2,3-b] [1,4]oxazin-6-yl)sulfonyl)-4-(2-((R or S)-2-(2-isopropylphenyl)pyrrolidin-1-yl)-7-azaspiro[3.5]nonan-7-yl)benzamide]	≤ 1 nM	≤ 1 nM
O=C(NS(=O)(=O)c1cc([N+](=O)[O-])c2c(n1)OC[C@H](Cc1ccccn1)N2)c1ccc(N2CCC3(CC2)CC(N2CCC[C@H]2c2ccccc2C2CC2)C3)cc1Oc1cnc2[nH]ccc2c1 (single isomer, unassigned) [Example B-45, 2-((1H-pyrrolo[2,3-b]pyridin-5-yl)oxy)-4-(2-((R or S)-2-(2-cyclopropylphenyl)pyrrolidin-1-yl)-7-azaspiro[3.5]nonan-7-yl)-N-(((S)-8-nitro-2-(pyridin-2-ylmethyl)-2,3-dihydro-1H-pyrido [2,3-b][1,4]oxazin-6-yl)sulfonyl) benzamide]	≤ 1 nM	≤ 1 nM
O=C(NS(=O)(=O)c1cc([N+](=O)[O-])c2c(n1)OC[C@H](C1CC1)N2)c1ccc(N2CCC3(CC2)CC(N2CCCC2c2ccccc2C2CC2)C3)cc1Oc1cnc2[nH]ccc2c1 (single isomer, unassigned) [Example B-52, 2-((1H-pyrrolo[2,3-b]pyridin-5-yl)oxy)-N-(((S)-2-cyclopropyl-8-nitro-2,3-dihydro-1H-pyrido[2,3-b] [1,4]oxazin-6-yl)sulfonyl)-4-(2-((R or S)-2-(2-cyclopropylphenyl)pyrrolidin-1-yl)-7-azaspiro[3.5]nonan-7-yl)benzamide]	≤ 1 nM	≤ 1 nM
CCS(=O)(CC)=NC1CCC(CNc2ncc(S(=O)(=O)NC(=O)c3ccc(N4CCC5(CC4)CC(N4CCC[C@@H]4c4ccccc4C4CC4)C5)cc3Oc3cnc4[nH]ccc4c3)cc2[N+](=O)[O-])CC1 (stereo partly drawn) [Example A-2b, (R)-2-((1H-pyrrolo[2,3-b]pyridin-5-yl)oxy)-4-(2-(2-(2-cyclopropylphenyl)pyrrolidin-1-yl)-7-azaspiro[3.5]nonan-7-yl)-N-((6-(((4-((diethyl(oxo)-λ^6-sulfanylidene)amino)cyclohexyl)methyl)amino)-5-nitropyridin-3-yl)sulfonyl)benzamide]	≤ 1 nM	≤ 1 nM
O=C(NS(=O)(=O)c1cnc(NCC2CCC(N=S3(=O)CCOCC3)CC2)c([N+](=O)[O-])c1)c1ccc(N2CCC3(CC2)CC(N2CCC[C@@H]2c2ccccc2C2CC2)C3)cc1Oc1cnc2[nH]ccc2c1 (stereo partly drawn) [Example A-23b, (R)-2-((1H-pyrrolo[2,3-b]pyridin-5-yl)oxy)-4-(2-(2-(2-cyclopropyl-phenyl)pyrrolidin-1-yl)-7-azaspiro [3.5]nonan-7-yl)-N-((5-nitro-6-(((4-((4-oxido-1,4λ^6-oxathian-4-ylidene)amino)cyclohexyl)methyl)amino)pyridin-3-yl)sulfonyl) benzamide]	≤ 1 nM	≤ 1 nM
CC(C)c1ccccc1[C@H]1CCCN1C1CC2(CCN(c3ccc(C(=O)NS(=O)(=O)c4cc([N+](=O)[O-])c(NCC5CCOCC5)cn4)c(Oc4cnc5[nH]ccc5c4)c3)CC2)C1 [Example B-4b, (R)-2-((1H-pyrrolo[2,3-b]pyridin-5-yl)oxy)-4-(2-(2-(2-isopropylphenyl)pyrrolidin-1-yl)-7-azaspiro [3.5]nonan-7-yl)-N-((4-nitro-5-(((tetrahydro-2H-pyran-4-yl)methyl)amino)pyridin-2-yl)sulfonyl) benzamide]	≤ 1 nM	≤ 1 nM
O=C(NS(=O)(=O)c1cnc(NCC2(F)CCOCC2)c([N+](=O)[O-])c1)c1ccc(N2CCC3(CC2)CC(N2CCC[C@H]2c2ccccc2C2CC2)C3)cc1Oc1cnc2[nH]ccc2c1 [Example A-32a, (S)-2-((1H-pyrrolo[2,3-b]pyridin-5-yl)oxy)-4-(2-(2-(2-cyclopropyl-phenyl)pyrrolidin-1-yl)-7-azaspiro [3.5]nonan-7-yl)-N-((6-(((4-fluoro-tetrahydro-2H-pyran-4-yl)methyl)amino)-5-nitropyridin-3-yl)sulfonyl)benzamide]	≤ 1 nM	≤ 1 nM
